Measured values from patent publication US11957712B2, “Application of a hydrogel in the preparation of products for the treatment of bacterial infections” (Shaanxi University of Science & Technology, priority 2022, dated 2024).

Experiments:
Enterobacter sakazakii = details: 16 μM ferrous sulfate, 12 h, FIG. 8B
Method: (§1) Ferrous sulfate aqueous solutions were configured to a final concentration of 16 μM; and prepare 10^8 CFU/mL of Escherichia coli, Listeria monocytogenes, Vibrio Parahemolyticus, Enterobacter sakazakii, Staphylococcus aureus and MRSA. A 96-well plate assay was performed to determine the susceptibility of six pathogenic bacteria to ferrous sulfate, and after 12 h treatment, the total number of bacterial colonies was determined in a drop-plate assay to further investigate the effect of ferrous ions on their inhibition.

Escherichia coli = details: 16 μM ferrous sulfate, 12 h, FIG. 8B
Method: as §1

Listeria monocytogenes = details: 16 μM ferrous sulfate, 12 h, FIG. 8B
Method: as §1

MRSA = details: 16 μM ferrous sulfate, 12 h, 10^8 CFU/mL
Method: as §1

Staphylococcus aureus [1] = details: 16 μM ferrous sulfate, 12 h, 10^8 CFU/mL
Method: as §1

Vibrio Parahemolyticus = details: 16 μM ferrous sulfate, 12 h, FIG. 8B
Method: as §1

S. aureus = tested on: S. aureus
Method: Ferrous sulfate aqueous solutions were configured to final concentrations of 1, 4, 16, and 64 μM, respectively, and ampicillin and vancomycin as positive controls were configured to 100 μg/mL, as well as ultrapure water without ferrous sulfate was set as a blank control group. Then 10^8 CFU/mL of S. aureus and MRSA were prepared. The cell suspensions were added with FeSO4 at final concentrations of 0, 1, 4, 16, 64 μM, respectively, and incubated at 37° C. 200 rpm for 12 h. […] After incubation, S. aureus cells were collected by centrifugation, suspended in 1 mL of normal saline solution, and subjected to 10-fold serial dilutions. Finally, 6 dilutions of each condition were plated on TSB agar, and the colony form units (CFU) were enumerated after incubation at 37° C. overnight.

Staphylococcus aureus [2] = details: 100 μM, 12 h treatment, approximately 10^8 CFU/mL
Method: To verify the antibacterial activity of ferrous ions against Staphylococcus aureus, the following tests were done: • 1. […] 96-well plate method was used to test the drug sensitivity of 9 ferrous salts against Staphylococcus aureus (approximately 10^8 CFU/mL). After 12 h treatment, the total number of bacterial colonies was determined followed by drop plate method to further investigate the antibacterial effect of iron ions on Staphylococcus aureus.

Substance: ferrous sulfate
- bactericidal effect (Enterobacter sakazakii): strong bactericidal effect
- bactericidal effect (Escherichia coli): strong bactericidal effect
- bactericidal effect (Listeria monocytogenes): strong bactericidal effect
- survival of MRSA (MRSA): less than 0.01%
- survival rate of S. aureus (Staphylococcus aureus [1]): less than 0.001%
- bactericidal effect (Vibrio Parahemolyticus): strong bactericidal effect
- MBC (lowest concentration required to kill 99.99% cells of S. aureus) (S. aureus; 37° C., 200 rpm, 12 h, 10^8 CFU/mL): 16 µM
- bactericidal rate (S. aureus; at 16 μM (MBC)): 99.99%
- inhibition of the growth of S. aureus (Staphylococcus aureus [2]): ~100%
